Measured values as given in ChEMBL document CHEMBL2390825, “A bioassay-driven discovery of an unexpected selenophene and its cytotoxicity” (Bioorg Med Chem Lett, 2013).
The source made the active and inactive calls. The rule behind the calls is not given here.

How the values were obtained:
518A2 [1] = experiment: Induction of apoptosis in human 518A2 cells assessed as viable cells at 30 uM after 6 hrs by Annexin V FITC and propidium iodide staining by FACS analysis; format: functional; conditions: 518A2, 6 h, read-out: Activity
518A2 [2] = experiment: Induction of apoptosis in human 518A2 cells assessed as total apoptotic cells at 30 uM after 6 hrs by Annexin V FITC and propidium iodide staining by FACS analysis; format: functional
518A2 [3] = experiment: Induction of apoptosis in human 518A2 cells assessed as necrotic cells at 30 uM after 6 hrs by Annexin V FITC and propidium iodide staining by FACS analysis; format: functional
[4] = Cell cycle arrest in human 518A2 cells assessed as accumulation at S phase at 30 uM after 24 hrs by propidium iodide staining (reference value: 44.643%); format: functional, cell-based
[5] = Cell cycle arrest in human 518A2 cells assessed as accumulation at G2/M phase at 30 uM after 24 hrs by propidium iodide staining (reference value: 8.694%); format: functional, cell-based
[6] = Cell cycle arrest in human 518A2 cells assessed as accumulation at G1/G0 phase at 30 uM after 24 hrs by propidium iodide staining (reference value: 46.662%); format: functional, cell-based
A549 = experiment: Cytotoxicity against human A549 cells after 96 hrs by SRB assay; format: functional, cell-based
NIH3T3 = experiment: Cytotoxicity against mouse NIH/3T3 cells after 96 hrs by SRB assay; format: cell-based
HT-29 = experiment: Cytotoxicity against human HT-29 cells after 96 hrs by SRB assay; format: functional, cell-based
8505C = experiment: Cytotoxicity against human 8505C cells after 96 hrs by SRB assay; format: functional, cell-based
A2780 = experiment: Cytotoxicity against human A2780 cells after 96 hrs by SRB assay; format: functional, cell-based
MCF7 = experiment: Cytotoxicity against human MCF7 cells after 96 hrs by SRB assay; format: functional, cell-based
[7] = Cytotoxicity against human 518A2 cells after 96 hrs by SRB assay; format: functional, cell-based
518A2 [8] = experiment: Induction of apoptosis in human 518A2 cells assessed as viable cells at 50 uM after 6 hrs by Annexin V FITC and propidium iodide staining by FACS analysis; format: functional; conditions: 518A2, 6 h, read-out: Activity
518A2 [9] = experiment: Induction of apoptosis in human 518A2 cells assessed as total apoptotic cells at 50 uM after 6 hrs by Annexin V FITC and propidium iodide staining by FACS analysis; format: functional
518A2 [10] = experiment: Induction of apoptosis in human 518A2 cells assessed as necrotic cells at 50 uM after 6 hrs by Annexin V FITC and propidium iodide staining by FACS analysis; format: functional
518A2 [11] = experiment: Induction of apoptosis in human 518A2 cells assessed as formation of DNA ladder at 50 uM after 24 hrs using AO/PI dye by fluorescence microscopic analysis; format: functional, cell-based
[12] = Cell cycle arrest in human 518A2 cells assessed as accumulation at S phase at 50 uM after 24 hrs by propidium iodide staining (reference value: 44.643%); format: functional, cell-based
[13] = Cell cycle arrest in human 518A2 cells assessed as accumulation at G2/M phase at 50 uM after 24 hrs by propidium iodide staining (reference value: 8.694%); format: functional, cell-based
[14] = Cell cycle arrest in human 518A2 cells assessed as accumulation at G1/G0 phase at 50 uM after 24 hrs by propidium iodide staining (reference value: 46.662%); format: functional, cell-based

| Compound | viability at 30 µM (518A2 [1]) | Activity (518A2 [2]) | Activity (518A2 [3]) | Activity [4] | Activity [5] | Activity [6] | IC50 (A549) | IC50 (NIH3T3) | IC50 (HT-29) | IC50 (8505C) | IC50 (A2780) | IC50 (MCF7) | IC50 [7] | viability at 50 µM (518A2 [8]) | Activity (518A2 [9]) | Activity (518A2 [10]) | Activity (518A2 [11]) | Activity [12] | Activity [13] | Activity [14] |
| --- | --- | --- | --- | --- | --- | --- | --- | --- | --- | --- | --- | --- | --- | --- | --- | --- | --- | --- | --- | --- |
| COC(=O)[C@@]1(C)CC[C@]2(C)CC[C@]3(C)[C@@]4(C(=O)OC1=C24)C(=O)[C@@H]1[C@@]2(C)CC[C@H](OC(C)=O)C(C)(C)[C@@H]2CC[C@]13C | -4.3% | 3.9% | 0.5% | -8% | -15% | 11% | 15 µmol | 38.1 µmol | 58.7 µmol | 73.2 µmol | 19.7 µmol | 33.5 µmol | 14.7 µmol |  |  |  |  |  |  |  |
| COC(=O)[C@@]1(C)CC[C@]2(C)CC[C@]3(C)c4c([se]c1c42)C(=O)[C@@H]1[C@@]2(C)CC[C@H](OC(C)=O)C(C)(C)[C@@H]2CC[C@]13C |  |  |  |  |  |  | 46.9 µmol | 46.1 µmol | 67.2 µmol | 42.2 µmol | 33.7 µmol | 45.6 µmol | 36.7 µmol | -15% | 13.2% | 1.8% | Active | 8% | -86% | 9% |
| COC(=O)[C@@]1(C)CC[C@]2(C)CC[C@]3(C)C(=CC(=O)[C@@H]4[C@@]5(C)CC[C@H](OC(C)=O)C(C)(C)[C@@H]5CC[C@]43C)[C@@H]2C1 |  |  |  |  |  |  | 42.6 µmol | 101.4 µmol | 77.4 µmol | 116.4 µmol | 40.5 µmol | 51.6 µmol | 26.1 µmol | -19.3% | 16.8% | 2.5% |  | 4% | -7% | -2% |
